Measured values from patent US5714467A, “Antibacterial and antimalarial hybrid peptides” (The Rockefeller University, priority 1993, dated 1998).
Where no end group is shown, it is not given here.

System: Sheep Red Cells
Test: lysis of sheep red blood cells (lysis assay or SRC plate assay)
Assay type: cell-based
Settings: for Lethal concentration, SRC = Sheep Red Cells: Table 3; for concentration lytic to sheep red blood cells: running text
Procedure: These values were obtained by either the lysis assay normally used for melittin or by an adaptation of the antibacterial inhibition zone assay of the above-cited Hultmark et al articles to plates with sheep red cells (SRC). With respect to the latter, sterile agarose plates contained 6 ml of medium With 1% agarose, 0.9% NaCl and 10% SRC suspended in Alsevers solution. A dilution series of peptide was applied in 3 mm wells each loaded with 3 μl of the respective samples. The plates were incubated at 30° C. for 24 h, the zones were recorded and LC values calculated as described in the Hultmark et al articles. Clear zones were recorded after a few hours of incubation and the use of such data gave an LC value of the same order as readings after 24 h. This plate assay is faster and more convenient than the lysis assay normally used for melittin.

[1] = Table 2, no incubation footnote
[2] = Table 2, footnote a: incubation overnight at 30° C. as well as at 37° C.

Row | Compound | Lethal concentration, Sheep Red Cells [1] [µM] | Lethal concentration, SRC = Sheep Red Cells [µM] | also measured
1 | KWKLFKKGAVLKVLT-NH2 [CA(1-7)M(3-10)] | > 600 |  | 
2 | CC[C@H](C)[C@H](NC(=O)[C@H](CCC(N)=O)NC(=O)[C@@H](NC(=O)[C@H](C)NC(=O)[C@H](CCC(N)=O)NC(=O)CNC(=O)[C@@H](NC(=O)[C@@H](NC(=O)[C@H](C)NC(=O)[C@@H](NC(=O)[C@H](C)N)C(C)C)C(C)C)C(C)C)[C@@H](C)O)C(=O)N[C@@H](C)C(=O)N[C@@H](CCCCN)C(=O)N[C@@H](CCCCN)C(=O)N[C@@H](Cc1c[nH]c2ccccc12)C(=O)N[C@@H](CCCCN)C(=O)N[C@@H](CC(C)C)C(=O)N[C@@H](Cc1ccccc1)C(=O)N[C@@H](CCCCN)C(=O)N[C@@H](CCCCN)C(=O)N[C@H](C(=O)N[C@@H](CCC(=O)O)C(=O)N[C@@H](CCCCN)C(=O)N[C@H](C(=O)NCC(=O)N[C@@H](CCC(N)=O)C(N)=O)C(C)C)[C@@H](C)CC [CA(25-37)CA(1-13)] |  |  | Lethal concentration, Sheep Red Cells (Table 2, footnote b: incubation overnight at 30° C.): > 300 µM
3 | CC[C@H](C)[C@H](NC(=O)CNC(=O)[C@H](CCCNC(=N)N)NC(=O)CNC(=O)[C@H](CCSC)NC(=O)[C@H](CCCCN)NC(=O)[C@H](CCC(=O)O)NC(=O)[C@@H](NC(=O)[C@H](CCCCN)NC(=O)[C@H](CCCCN)NC(=O)[C@H](Cc1ccccc1)NC(=O)[C@@H](NC(=O)[C@H](CCCCN)NC(=O)[C@H](Cc1c[nH]c2ccccc12)NC(=O)[C@@H](N)CCCCN)C(C)C)[C@@H](C)CC)C(=O)NCC(=O)N[C@@H](C)C(=O)N[C@H](C(=O)N[C@@H](CC(C)C)C(=O)N[C@@H](CCCCN)C(=O)N[C@H](C(=O)N[C@@H](CC(C)C)C(=O)N[C@H](C(=O)N[C@H](C(=O)NCC(=O)N[C@@H](CC(C)C)C(N)=O)[C@@H](C)O)[C@@H](C)O)C(C)C)C(C)C [CB(1-13)M(1-13)] |  | 400 | 
4 | KWKLFKKIGAVLKVL-NH2 [CA(1-7)M(2-9)] | > 600 |  | 
5 | CC[C@H](C)[C@H](NC(=O)CN)C(=O)NCC(=O)N[C@@H](C)C(=O)N[C@H](C(=O)N[C@@H](CC(C)C)C(=O)N[C@@H](CCCCN)C(=O)N[C@H](C(=O)N[C@@H](CC(C)C)C(=O)N[C@H](C(=O)N[C@H](C(=O)NCC(=O)N[C@@H](CC(C)C)C(=O)N[C@@H](CCCCN)C(=O)N[C@@H](Cc1c[nH]c2ccccc12)C(=O)N[C@@H](CCCCN)C(=O)N[C@@H](CC(C)C)C(=O)N[C@@H](Cc1ccccc1)C(=O)N[C@@H](CCCCN)C(=O)N[C@@H](CCCCN)C(=O)N[C@H](C(=O)N[C@@H](CCC(=O)O)C(=O)N[C@@H](CCCCN)C(=O)N[C@H](C(=O)NCC(=O)N[C@@H](CCC(N)=O)C(N)=O)C(C)C)[C@@H](C)CC)[C@@H](C)O)[C@@H](C)O)C(C)C)C(C)C [M(1-13)CA(1-13)] | 80 | 80 | 
6 | KWKLFKKLKVLTTGL-NH2 [CA(1-7)M(6-13)] | > 500 |  | 
7 | KWKLFKKAVLKVLTT-NH2 [CA(1-7)M(4-11)] | > 600 |  | 
8 | KWKLFKKIEKVGQNIRDGIGAVLKVL-NH2 [CA(1-17)M(1-9)] |  | 600 | 
9 | CC[C@H](C)[C@H](NC(=O)CNC(=O)[C@@H](NC(=O)[C@H](CCCCN)NC(=O)[C@H](CCCCN)NC(=O)[C@H](Cc1ccccc1)NC(=O)[C@H](CC(C)C)NC(=O)[C@H](CCCCN)NC(=O)[C@H](Cc1c[nH]c2ccccc12)NC(=O)[C@@H](N)CCCCN)[C@@H](C)CC)C(=O)NCC(=O)N[C@@H](C)C(=O)N[C@H](C(=O)N[C@@H](CC(C)C)C(=O)N[C@@H](CCCCN)C(=O)N[C@H](C(=O)N[C@@H](CC(C)C)C(=O)N[C@H](C(=O)N[C@H](C(=O)NCC(N)=O)[C@@H](C)O)[C@@H](C)O)C(C)C)C(C)C [CA(1-8)M(1-12)] | > 600 |  | 
10 | KWKLFKKGIGAVLKV-NH2 [CA(1-7)M(1-8)] | > 200 |  | 
11 | CC[C@H](C)[C@H](NC(=O)CNC(=O)[C@@H](NC(=O)[C@H](CCCCN)NC(=O)[C@H](CCCCN)NC(=O)[C@H](Cc1ccccc1)NC(=O)[C@H](CC(C)C)NC(=O)[C@H](CCCCN)NC(=O)[C@H](Cc1c[nH]c2ccccc12)NC(=O)[C@@H](N)CCCCN)[C@@H](C)CC)C(=O)NCC(=O)N[C@@H](C)C(=O)N[C@H](C(=O)N[C@@H](CC(C)C)C(=O)N[C@@H](CCCCN)C(=O)N[C@H](C(=O)N[C@@H](CC(C)C)C(=O)N[C@H](C(=O)N[C@H](C(=O)NCC(=O)N[C@@H](CC(C)C)C(=O)N1CCC[C@H]1C(=O)N[C@@H](C)C(=O)N[C@@H](CC(C)C)C(=O)N[C@H](C(=O)N[C@@H](CO)C(N)=O)[C@@H](C)CC)[C@@H](C)O)[C@@H](C)O)C(C)C)C(C)C [CA(1-8)M(1-18)] |  | 600 | 
12 | CC[C@H](C)[C@H](NC(=O)CNC(=O)[C@H](CCC(N)=O)NC(=O)CNC(=O)[C@@H](NC(=O)[C@H](CCCCN)NC(=O)[C@H](CCC(=O)O)NC(=O)[C@@H](NC(=O)[C@H](CCCCN)NC(=O)[C@H](CCCCN)NC(=O)[C@H](Cc1ccccc1)NC(=O)[C@H](CC(C)C)NC(=O)[C@H](CCCCN)NC(=O)[C@H](Cc1c[nH]c2ccccc12)NC(=O)[C@@H](N)CCCCN)[C@@H](C)CC)C(C)C)C(=O)NCC(=O)N[C@@H](C)C(=O)N[C@H](C(=O)N[C@@H](CC(C)C)C(=O)N[C@@H](CCCCN)C(=O)N[C@H](C(=O)N[C@@H](CC(C)C)C(=O)N[C@H](C(=O)N[C@H](C(=O)NCC(=O)N[C@@H](CC(C)C)C(N)=O)[C@@H](C)O)[C@@H](C)O)C(C)C)C(C)C [CA(1-13)M(1-13)] |  |  | Lethal concentration, Sheep Red Cells [2]: > 200 µM; concentration lytic to sheep red blood cells: ≥ 100 µM; concentration lytic to sheep red blood cells (listed as CA(1-13) M(1-13)): greater than 200 μM
13 | CC[C@H](C)[C@H](NC(=O)CN)C(=O)NCC(=O)N[C@@H](C)C(=O)N[C@H](C(=O)N[C@@H](CC(C)C)C(=O)N[C@@H](CCCCN)C(=O)N[C@H](C(=O)N[C@@H](CC(C)C)C(=O)N[C@H](C(=O)N[C@H](C(=O)NCC(=O)N[C@@H](CC(C)C)C(=O)N[C@@H](CCCCN)C(=O)N[C@@H](Cc1c[nH]c2ccccc12)C(=O)N[C@@H](CCCCN)C(=O)N[C@@H](CC(C)C)C(=O)N[C@@H](Cc1ccccc1)C(=O)N[C@@H](CCCCN)C(=O)N[C@@H](CCCCN)C(=O)N[C@H](C(=O)N[C@@H](CCC(=O)O)C(=O)N[C@@H](CCCCN)C(=O)N[C@H](C(=O)NCC(=O)N[C@@H](CCC(N)=O)C(=O)N[C@@H](CC(N)=O)C(=O)N[C@H](C(=O)N[C@@H](CCCNC(=N)N)C(=O)N[C@@H](CC(=O)O)C(=O)NCC(=O)N[C@H](C(=O)N[C@H](C(=O)N[C@@H](CCCCN)C(=O)N[C@@H](C)C(N)=O)[C@@H](C)CC)[C@@H](C)CC)[C@@H](C)CC)C(C)C)[C@@H](C)CC)[C@@H](C)O)[C@@H](C)O)C(C)C)C(C)C [M(1-13)CA(1-22)] |  | 40 | 
14 | KWKLFKKIGIGAVLKVLT-NH2 [CA(1-8)M(1-10)] | > 600 |  | 
15 | KWKLFKKVLKVLTTG-NH2 [CA(1-7)M(5-12)] | > 500 |  | 
16 | CC[C@H](C)[C@H](NC(=O)CNC(=O)[C@H](CCC(N)=O)NC(=O)[C@H](CCC(N)=O)NC(=O)[C@H](CCCNC(=N)N)NC(=O)[C@H](CCCCN)NC(=O)[C@H](CCCNC(=N)N)NC(=O)[C@H](CCCCN)NC(=O)[C@@H](NC(=O)[C@H](Cc1c[nH]c2ccccc12)NC(=O)[C@H](CO)NC(=O)[C@@H](NC(=O)[C@@H](N)CC(C)C)[C@@H](C)CC)[C@@H](C)CC)C(=O)NCC(=O)N[C@@H](C)C(=O)N[C@H](C(=O)N[C@@H](CC(C)C)C(=O)N[C@@H](CCCCN)C(=O)N[C@H](C(=O)N[C@@H](CC(C)C)C(=O)N[C@H](C(=O)N[C@H](C(=O)NCC(=O)N[C@@H](CC(C)C)C(N)=O)[C@@H](C)O)[C@@H](C)O)C(C)C)C(C)C [M(16-26)M(1-13)] |  |  | improvement in red cell lysis concentration over natural melittin (240 μM versus 4-6 μM): 40-60 fold; Lethal concentration, Sheep Red Cells [2]: > 200 µM; concentration lytic to sheep red blood cells: > 240 µM
17 | KWKLFKKIEKVGQNIRDGGIGAVLKV-NH2 [CA(1-18)M(1-8)] |  | 600 | 
18 | CC[C@H](C)[C@H](NC(=O)[C@H](CC(C)C)NC(=O)[C@H](C)NC(=O)[C@@H]1CCCN1C(=O)[C@H](CC(C)C)NC(=O)CNC(=O)[C@@H](NC(=O)[C@@H](NC(=O)[C@H](CC(C)C)NC(=O)[C@@H](NC(=O)[C@H](CCCCN)NC(=O)[C@H](CC(C)C)NC(=O)[C@@H](NC(=O)[C@H](C)NC(=O)CNC(=O)[C@@H](NC(=O)CNC(=O)[C@H](CCC(=O)O)NC(=O)[C@@H](NC(=O)[C@H](CCCCN)NC(=O)[C@H](CCCCN)NC(=O)[C@H](Cc1ccccc1)NC(=O)[C@H](CC(C)C)NC(=O)[C@H](CCCCN)NC(=O)[C@H](Cc1c[nH]c2ccccc12)NC(=O)[C@@H](N)CCCCN)[C@@H](C)CC)[C@@H](C)CC)C(C)C)C(C)C)[C@@H](C)O)[C@@H](C)O)C(N)=O [CA(1-9)M(1-17)] |  | 600 | 
19 | CC[C@H](C)[C@H](NC(=O)CNC(=O)[C@@H]1CCCN1C(=O)CNC(=O)[C@H](C)NC(=O)[C@H](CCCCN)NC(=O)[C@@H](NC(=O)[C@@H](NC(=O)CNC(=O)[C@H](CC(=O)O)NC(=O)[C@H](CCCNC(=N)N)NC(=O)[C@@H](NC(=O)[C@H](CC(N)=O)NC(=O)[C@H](CCC(N)=O)NC(=O)CNC(=O)[C@@H](NC(=O)[C@H](CCCCN)NC(=O)[C@H](CCC(=O)O)NC(=O)[C@@H](NC(=O)[C@H](CCCCN)NC(=O)[C@H](CCCCN)NC(=O)[C@H](Cc1ccccc1)NC(=O)[C@H](CC(C)C)NC(=O)[C@H](CCCCN)NC(=O)[C@H](Cc1c[nH]c2ccccc12)NC(=O)[C@@H](N)CCCCN)[C@@H](C)CC)C(C)C)[C@@H](C)CC)[C@@H](C)CC)[C@@H](C)CC)C(=O)NCC(=O)N[C@@H](C)C(=O)N[C@H](C(=O)N[C@@H](CC(C)C)C(=O)N[C@@H](CCCCN)C(=O)N[C@H](C(=O)N[C@@H](CC(C)C)C(=O)N[C@H](C(=O)N[C@H](C(=O)NCC(=O)N[C@@H](CC(C)C)C(N)=O)[C@@H](C)O)[C@@H](C)O)C(C)C)C(C)C [CA(1-24)M(1-13)] |  |  | Lethal concentration, Sheep Red Cells [2]: > 200 µM; concentration lytic to sheep red blood cells: ≥ 100 µM
